This passage reports IC50 results from patent US12351570B2 (MERCK PATENT GMBH, priority 2018, dated 2025).

As a reminder, the pIC50 is the negative decadic logarithm of the IC50, by convention in mol/L.

SMILES strings stand for the structures. pIC50: −log10 of the molar value.

For the experiment, the system named is MDA-MB-231 cells. Briefly: Extracellular lactate production inhibition after 4 h, MDA-MB-231. To be noted: Homo sapiens, MDA-MB-231.
Method: Extracellular Lactate Production Inhibition after 4 h
Cells were plated in growth media supplemented with 10% FBS, followed by overnight recovery at 37° C., 5% CO2. […] Plates were then moved for 4 h incubation at 37° C., 5% CO2 with subsequent 20 μl media transfer to empty 384-well transparent plates. […] Plates were short-spun and measured kinetically in absorbance mode (530 nm, 12 min measurement time with 2-minute intervals between subsequent readouts at 30° C.). Differences in the signal between T8 min and T0min were normalized to vehicle (cells w/ 0.25% DMSO) and quasi-positive (LCIS buffer w/ 0.25% DMSO) controls and plotted against logarithmically-transformed test compound concentrations with fitting the 4-parameter model in GraphPad Prism software.
`CCc1ccc(S(=O)(=O)Nc2ccccc2C#Cc2ccc(C(=O)O)nc2)c2ncccc12` [Compound 411, 5-{2-[2-(5-ethylquinoline-8-sulfonamido)phenyl]ethynyl}pyridine-2-carboxylic acid] gave a negative-log IC50 (pIC50) of 6.00 to 7.00.

The compound `O=C(O)c1ccc(C#Cc2ccccc2NS(=O)(=O)c2ccc(Cl)s2)cn1` [Compound 304, 5-{2-[2-(5-chlorothiophene-2-sulfonamido)phenyl]ethynyl}pyridine-2-carboxylic acid] had a pIC50 of 4.00 to 6.00.

For the compound `Cc1ccc2cccnc2c1S(=O)(=O)Nc1ccccc1C#Cc1cnc(C(=O)O)c(CO)c1` [Compound 399, 3-(hydroxymethyl)-5-{2-[2-(7-methylquinoline-8-sulfonamido)phenyl]ethynyl}pyridine-2-carboxylic acid], the pIC50 is 6.00 to 7.00.

`Cc1cc(C(=O)O)ncc1C#Cc1ccccc1NS(=O)(=O)c1cccc2cccnc12` [Compound 61, 4-methyl-5-{2-[2-(quinoline-8-sulfonamido)phenyl]ethynyl}pyridine-2-carboxylic acid] had a negative-log IC50 (pIC50) of 6.00 to 7.00.

`COc1ccc(NS(=O)(=O)c2c(C)ccc3cccnc23)c(C#Cc2ccc(C(=O)O)nc2)c1` [Compound 247, 5-{2-[5-methoxy-2-(7-methylquinoline-8-sulfonamido)phenyl]ethynyl}pyridine-2-carboxylic acid] showed a pIC50 of 7.00 to 8.00.

On to `COc1cc(C)c(S(=O)(=O)Nc2ccccc2C#Cc2ccc(C(=O)O)nc2)c(C)c1C` [Compound 277, 5-{2-[2-(4-methoxy-2,3,6-trimethyl-benzenesulfonamido)phenyl]ethynyl}-pyridine-2-carboxylic acid], for which the pIC50 was 6.00 to 7.00.

Turning to `O=C(O)c1ccc(C#Cc2ccccc2NS(=O)(=O)c2ccc3c(c2)[nH]c2ccccc23)cn1` [Compound 124, 5-{2-[2-(9H-carbazole-2-sulfonamido)phenyl]ethynyl}pyridine-2-carboxylic acid], the pIC50 was 6.00 to 7.00.

Compound `Cc1ccccc1-c1cccc(S(=O)(=O)Nc2ccccc2C#Cc2ccc(C(=O)O)cc2)c1` [Compound 86, 4-[2-(2-{2′-methyl-[1,1′-biphenyl]-3-sulfonamido}phenyl)ethynyl]benzoic acid] gave a negative logarithm of the IC50 (pIC50) of 4.00 to 6.00.

Take `COc1cccc(S(=O)(=O)Nc2ccc(F)cc2C#Cc2cnc(C(=O)O)c(C)c2)c1` [Compound 322, 5-{2-[5-fluoro-2-(3-methoxybenzene-sulfonamido)phenyl]ethynyl}-3-methylpyridine-2-carboxylic acid]: the pIC50 is 4.00 to 6.00.

On to `O=C(O)c1ccc(C#Cc2ccccc2NS(=O)(=O)c2ccc3cc(Cl)ccc3c2)cc1` [Compound 43, 4-{2-[2-(6-chloronaphthalene-2-sulfonamido)phenyl]ethynyl}benzoic acid], for which the negative-log IC50 (pIC50) is 6.00 to 7.00.

As for `COc1ccnc2c(S(=O)(=O)Nc3ccccc3C#Cc3ccc(C(=O)O)nc3)cccc12` [Compound 324, 5-{2-[2-(4-methoxyquinoline-8-sulfonamido)phenyl]ethynyl}pyridine-2-carboxylic acid], the pIC50 is 6.00 to 7.00.

In turn, `Cc1cc(C#Cc2ccccc2NS(=O)(=O)c2cccc3ccccc23)ccc1C(=O)O` [Compound 80, 2-methyl-4-{2-[2-(naphthalene-1-sulfonamido)phenyl]ethynyl}benzoic acid] showed a pIC50 of 6.00 to 7.00.

Turning to `COc1cc(C#Cc2ccccc2NS(=O)(=O)c2ccc(OC)c3ccccc23)ccc1C(=O)O` [Compound 33, 2-methoxy-4-{2-[2-(4-methoxynaphthalene-1-sulfonamido)phenyl]ethynyl}benzoic acid], the pIC50 is 6.00 to 7.00.

The compound `COc1ccc(S(=O)(=O)N(C)c2ccccc2C#Cc2ccc(C(=O)O)nc2)c2ncccc12` [Compound 175, 5-{2-[2-(N-methyl5-methoxyquinoline-8-sulfonamido)phenyl]ethynyl}pyridine-2-carboxylic acid] showed a negative logarithm of the IC50 (pIC50) of 4.00 to 6.00.

Regarding `O=C(O)c1ncc(C#Cc2ccccc2NS(=O)(=O)c2cccc3ccccc23)cc1C(F)(F)F` [Compound 283, 5-{2-[2-(naphthalene-1-sulfon-amido)phenyl]ethynyl}-3-(trifluoro-methyl)pyridine-2-carboxylic acid], the negative-log IC50 (pIC50) is 4.00 to 6.00.

`Cc1cc(C#Cc2ccccc2NS(=O)(=O)c2ccc3ccccc3c2)ccc1C(=O)O` [Compound 10, 2-methyl-4-{2-[2-(naphthalene-2-sulfonamido)phenyl]ethynyl}benzoic acid] had a pIC50 of 6.00 to 7.00.

The compound `COc1ccc(S(=O)(=O)Nc2ccccc2C#Cc2ccc(C(=O)O)cc2)c(Cl)c1Cl` [Compound 23, 4-{2-[2-(2,3-dichloro-4-methoxybenzenesulfonamido)phenyl]-ethynyl}benzoic acid] showed a negative logarithm of the IC50 (pIC50) of 6.00 to 7.00.

As to `Cc1ccccc1-c1ccc(S(=O)(=O)Nc2ccccc2C#Cc2ccc(C(=O)O)nc2)cc1` [Compound 293, 5-[2-(2-{2′-methyl-[1,1′-biphenyl]-4-sulfonamido}phenyl)ethynyl]pyridine-2-carboxylic acid], the pIC50 was 6.00 to 7.00.

With `COc1cc(C#Cc2ccccc2NS(=O)(=O)c2cccc3ccccc23)ccc1C(=O)O` [Compound 62, 2-methoxy-4-{2-[2-(naphthalene-1-sulfonamido)phenyl]ethynyl}benzoic acid], the pIC50 is 6.00 to 7.00.

`O=CN(Cc1ccc(-c2ccccc2)cc1)c1ccccc1C#Cc1ccc(C(=O)O)nc1` [Compound 183, 5-(2-{2-[N-({[1,1′-biphenyl]-4-yl}methyl)formamido]phenyl}-ethynyl)pyridine-2-carboxylic acid] showed a negative logarithm of the IC50 (pIC50) of 7.00 to 8.00.

For `Cc1cc(C(=O)O)ncc1C#Cc1ccccc1NS(=O)(=O)c1ccc2ccccc2c1` [Compound 50, 4-methyl-5-{2-[2-(naphthalene-2-sulfonamido)phenyl]ethynyl}pyridine-2-carboxylic acid], the pIC50 is 4.00 to 6.00.

`O=CN(Cc1cccc(-c2ccccc2)c1)c1ccccc1C#Cc1ccc(C(=O)O)nc1` [Compound 181, 5-(2-{2-[N-({[1,1′-biphenyl]-3-yl}methyl)formamido]phenyl}-ethynyl)pyridine-2-carboxylic acid] gave a pIC50 of 6.00 to 7.00.

Regarding `CCNc1ccnc2c(S(=O)(=O)Nc3ccccc3C#Cc3ccc(C(=O)O)nc3)cccc12` [Compound 426, 5-[2-(4-Ethylamino-quinoline-8-sulfonylamino)-phenylethynyl]-pyridine-2-carboxylic acid], the pIC50 was 4.00 to 6.00.

Take `CN(c1ccccc1C#Cc1ccc(C(=O)O)cc1)S(=O)(=O)c1ccc2ccccc2c1` [Compound 4, 4-{2-[2-(N-methylnaphthalene-2-sulfonamido)phenyl]ethynyl}benzoic acid]: the pIC50 was 6.00 to 7.00.

`COc1ccc(S(=O)(=O)Nc2ccc(Br)cc2C#Cc2ccc(C(=O)O)nc2)c2ncccc12` [Compound 328, 5-{2-[5-bromo-2-(5-methoxyquinoline-8-sulfonamido)phenyl]ethynyl}pyridine-2-carboxylic acid] gave a pIC50 of 8.00 to 9.00.

Turning to `CCc1ccc2cccnc2c1S(=O)(=O)Nc1ccccc1C#Cc1cnc(C(=O)O)c2ccccc12` [Compound 445, 4-{2-[2-(7-ethylquinoline-8-sulfonamido)phenyl]ethynyl}iso-quinoline-1-carboxylic acid], the pIC50 was 4.00 to 6.00.

On to `O=CN(CCc1cccc2ccccc12)c1ccccc1C#Cc1ccc(C(=O)O)nc1` [Compound 200, 5-[2-(2-{N-[2-(naphthalen-1-yl)ethyl]-formamido}phenyl)ethynyl]pyridine-2-carboxylic acid], for which the pIC50 was 6.00 to 7.00.

With `O=C(O)c1ccc(C#Cc2cc(F)ccc2NS(=O)(=O)c2ccc3ccccc3c2)cc1` [Compound 15, 4-{2-[5-fluoro-2-(naphthalene-2-sulfonamido)phenyl]ethynyl}benzoic acid], the negative logarithm of the IC50 (pIC50) is 6.00 to 7.00.

The compound `COC(=O)c1ccc(C#Cc2ccccc2NS(=O)(=O)c2ccc3c(c2)Cc2ccccc2-3)cn1` [Compound 132, methyl 5-{2-[2-(9H-fluorene-2-sulfonamido)phenyl]ethynyl}pyridine-2-carboxylate] showed a negative logarithm of the IC50 (pIC50) of 7.00 to 8.00.

On to `O=C(O)c1ccc(C#Cc2ccccc2NS(=O)(=O)c2ccc(Br)c3ccccc23)cn1` [Compound 128, 5-{2-[2-(4-bromonaphthalene-1-sulfonamido)phenyl]ethynyl}pyridine-2-carboxylic acid], for which the negative logarithm of the IC50 (pIC50) was 6.00 to 7.00.

The compound `O=C(O)c1ccc(C#Cc2ccccc2NS(=O)(=O)c2cccc3ccccc23)cc1F` [Compound 69, 2-fluoro-4-{2-[2-(naphthalene-1-sulfonamido)phenyl]ethynyl}benzoic acid] gave a pIC50 of 6.00 to 7.00.

Regarding `COC(=O)c1ccc(C#Cc2cc(F)ccc2NS(=O)(=O)c2c(C)ccc3cccnc23)cn1` [Compound 134, methyl 5-{2-[5-fluoro-2-(7-methylquinoline-8-sulfonamido)phenyl]ethynyl}pyridine-2-carboxylate], the pIC50 is 7.00 to 8.00.

Consider `O=C(O)c1ccc(C#Cc2ccccc2NS(=O)(=O)c2cccc3c2OCCO3)cc1` [Compound 254, 4-[2-(2,3-Dihydro-benzo[1,4]dioxine-5-sulfonylamino)-phenylethynyl]-benzoic acid], for which the pIC50 is 4.00 to 6.00.

Turning to `CCOc1cc(C#Cc2ccccc2NS(=O)(=O)c2ccc3ccccc3c2)ccc1C(=O)O` [Compound 57, 2-ethoxy-4-{2-[2-(naphthalene-2-sulfonamido)phenyl]ethynyl}benzoic acid], the pIC50 is 4.00 to 6.00.

The compound `CNc1cc(C#Cc2cc(Cl)ccc2NS(=O)(=O)c2c(C)ccc3cccnc23)cnc1C(=O)O` [Compound 237, 5-{2-[5-chloro-2-(7-methylquinoline-8-sulfonamido)phenyl]ethynyl}-3-(methylamino)pyridine-2-carboxylic acid] gave a pIC50 of 8.00 to 9.00.

As for `COc1cc(C#Cc2ccccc2NS(=O)(=O)c2c(C)ccc3cccnc23)c(C)cc1C(=O)O` [Compound 365, 2-methoxy-5-methyl-4-{2-[2-(7-methylquinoline-8-sulfonamido)-phenyl]ethynyl}benzoic acid], the pIC50 is 6.00 to 7.00.

The compound `O=C(O)c1ccc(C#Cc2ccccc2NS(=O)(=O)c2ccc3c(c2)oc2ccccc23)cn1` [Compound 301, 5-[2-(2-{8-oxatricyclo[7.4.0.0^2,7]trideca-1(9),2(7),3,5,10,12-hexaene-5-sulfonamido}phenyl)ethynyl]pyridine-2-carboxylic acid] gave a pIC50 of 6.00 to 7.00.
